Test results: US7291627B2, “Dihydroimidazo[5.1-a]-beta-carboline derivatives, method for their preparation, and their application as a drug” (MACEF, priority 2001, dated 2007)

How the values were obtained:
JA 657 chicks = test: Chick sleep/sedation test (IM injection, 90 minute observation); assay type: in vivo; conditions: for Sed (sedation time as % of the period) / TA (time to torpor between injection and first stage of sleep) / TS (duration of the first sleep) / Tsed (total sedation time over the period): 90 min observation; for TS (mins) Placebo diff'ce: extension of first sleep compared with test controls
Procedure: (§1) The dihydroimidazo[5,1-a]-β-carboline derivatives of the invention, in particular those in the form of the methyl sulfonate, (soluble), were tested in chicks, and certain compounds that were active in the chick were administered in single doses to six Beagle dogs of both sexes for a polysomnographic study of at least 4 hours duration.
JA 657 chicks from Couvoir Gauguet, 44 Le Pin, were accustomed for at least 6 days to an alternating program of light and darkness with 12 hours of daylight and 12 hours of darkness at a regulated temperature of 25±2° C. They were fed ad libitum and were placed under test compounds in a vivarium in groups of 3 individuals with a mean weight of 100±10 g on the day of the test. At that age in this species, there is no effective meningeal (hemato-encephalic) barrier. The test products were injected in 3 doses (1, 3 and 10 mg/kg) intramuscularly (IM) in solution or in an aqueous suspension (1 drop of Tween 80 per ml), each to two batches of 3 chicks which were observed over 90 minutes. For each test series (18 vivaria), there was at least one batch of negative control chicks receiving the same volume (0.2 ml IM) of water for injectable preparations.
During the 90 minute observation period, the chicks were strongly stimulated every 15 minutes by presenting a full feeding trough, and each 5 minute period was given a grade from among the following 5 states, corresponding to the state of alertness over that period:
Mobile, sitting alert, drowsy, asleep, sleep-like state. The parameters studied were the time to torpor (TA) passed between injection and the first stage of sleep, the duration of the first sleep (TS) and the total sedation time over the period (Tsed), expressed in minutes and as a % of the period (Sed).
To compare the results of tests carried out at different dates, the extension of the duration of the first sleep TS compared with the test controls was recorded.

Beagle dogs = test: Polysomnographic study in the dog (EEG, 4 hours after oral gelule); assay type: in vivo; conditions: oral gelule; for Time passed at stage: Alertness / Time passed at stage: REM / Time passed at stage: SWS / Time passed at stage: Somnolence: four hours of monitoring
Procedure: as §1
Polysomnographic tests were carried out for each of the three products from the series, on 6 dogs of both sexes, adults from the certified breeding kennels at HARLAN, 03 Gannat, using stainless steel electrodes surgically implanted for the duration of the test in contact with the frontal bones through the sinus, facing the motor regions of the encephalus. The Nishino et al method adapted by Tafani, Valin et al has been described elsewhere. It comprised recording two traces for eye movements, one trace for muscular movements (concentric electrode in the nape muscles) and two electroencephalographic (EEG) traces. The digital EEG trace was recorded using a Nicollet Schwarzer polygraph or the like (DELTAMED Coherence 2 and 3, MEI Galileo NT) for 4 hours after administering a 00 gelule containing 0, 16 or 48 mg of the test product (i.e. a mean of 0,1 and 3 mg/kg of live weight).
Each dog was monitored for 4 hours twice a day over two days, morning and afternoon, after one week's acclimatization to the monitoring cage, a 1 m^2, 80 cm high stainless steel cage of the SHOR-LINE type. For each dog, monitoring always commenced at the same time. A meal was distributed 30 minutes before starting monitoring.
The polysomnographic traces could differentiate between at least 4 stages for each consecutive 30 second period: awake, somnolence, slow sleep and paradoxal sleep. The latency of the appearance of each of the first nonalert episodes and the duration of each of the stages per 2 hour period were recorded for each dog. Comparing the means allowed the effect of the test products on the sleep microstructure to be studied.

| SMILES | Sed (sedation time as % of the period) (JA 657 chicks; Dose: 1 mg/kg) [%] | TA (time to torpor between injection and first stage of sleep) (JA 657 chicks; Dose: 1 mg/kg) [min] | TS (duration of the first sleep) (JA 657 chicks; Dose: 1 mg/kg) [min] | Tsed (total sedation time over the period) (JA 657 chicks; Dose: 1 mg/kg) [min] | TS (mins) Placebo diff'ce (JA 657 chicks; Dose: 1 mg/kg) [min] | Sed (sedation time as % of the period) (JA 657 chicks; Dose: 3 mg/kg) [%] | TA (time to torpor between injection and first stage of sleep) (JA 657 chicks; Dose: 3 mg/kg) [min] | TS (duration of the first sleep) (JA 657 chicks; Dose: 3 mg/kg) [min] | Tsed (total sedation time over the period) (JA 657 chicks; Dose: 3 mg/kg) [min] | TS (mins) Placebo diff'ce (JA 657 chicks; Dose: 3 mg/kg) [min] | Sed (sedation time as % of the period) (JA 657 chicks; Dose: 10 mg/kg) [%] | TA (time to torpor between injection and first stage of sleep) (JA 657 chicks; Dose: 10 mg/kg) [min] | TS (duration of the first sleep) (JA 657 chicks; Dose: 10 mg/kg) [min] | Tsed (total sedation time over the period) (JA 657 chicks; Dose: 10 mg/kg) [min] | TS (mins) Placebo diff'ce (JA 657 chicks; Dose: 10 mg/kg) [min] | also measured |
| --- | --- | --- | --- | --- | --- | --- | --- | --- | --- | --- | --- | --- | --- | --- | --- | --- |
| COc1ccc2[nH]c3c(c2c1)CCn1c-3cnc1C.CS(=O)(=O)O [Example 2, 8-methoxy-3-methyl-5,6-dihydroimidazo[5,1-a]-β-carboline methane sulfonate] | 27.8 | 16 | 3 | 25 | 3 | 69.4 | 8.5 | 41 | 62.5 | 41 | 92.2 | 7 | 83 | 83 | 83 | Latency: Paradoxal (REM) sleep (Beagle dogs; 1 mg): 114 ± 53 min; Latency: Slow wave sleep (SWS) (Beagle dogs; 1 mg): 44 ± 16.3 min; Latency: Somnolence (Beagle dogs; 1 mg): 40 ± 14.7 min; Time passed at stage: Alertness (Beagle dogs; 1 mg): 136 ± 40.3 min; Time passed at stage: REM (Beagle dogs; 1 mg): 13.5 ± 10.6 min; Time passed at stage: SWS (Beagle dogs; 1 mg): 59 ± 20.5 min; Time passed at stage: Somnolence (Beagle dogs; 1 mg): 31 ± 4.6 min; Latency: Paradoxal (REM) sleep (Beagle dogs; 3 mg): 63 ± 21.1 min; Latency: Slow wave sleep (SWS) (Beagle dogs; 3 mg): 45 ± 5.4 min; Latency: Somnolence (Beagle dogs; 3 mg): 37 ± 6.7 min; Time passed at stage: Alertness (Beagle dogs; 3 mg): 123 ± 30.5 min; Time passed at stage: REM (Beagle dogs; 3 mg): 20 ± 9.5 min; Time passed at stage: SWS (Beagle dogs; 3 mg): 60 ± 26.9 min; Time passed at stage: Somnolence (Beagle dogs; 3 mg): 36 ± 15.4 min |
| CCn1c2c(c3cc(C)ccc31)CCn1c-2cnc1C.CS(=O)(=O)O [Example 20, 11-ethyl-3,8-dimethyl-5,6-dihydroimidazo-[5,1-a]-β-carboline methane sulfonate] | 80 | 2 | 65.5 | 72 | 57 | 79.4 | 1.5 | 51.5 | 71.5 | 43.5 | 97.2 | 1.5 | 87.5 | 87.5 | 81.5 | – |
| COc1ccc2[nH]c3c(c2c1)CCn1c(C)nc(-c2ccccc2)c1-3 [Example 4, 8-methoxy-3-methyl-1-phenyl-5,6-dihydro-imidazo[5,1-a]-β-carboline] | 58.9 | 16.5 | 38 | 53.01 | 34 | 72.8 | 14 | 22.5 | 65.5 | 18.5 | 90.6 | 8.5 | 81.5 | 81.5 | 76.5 | – |
| COc1ccc2c(c1)c1c(n2C)-c2cnc(C)n2CC1.CS(=O)(=O)O [Example 9, 8-methoxy-3,11-dimethyl-5,6-dihydroimidazo-[5,1-a]-β-carboline methane sulfonate] | 27.2 | 22 | 3 | 24.5 | 2.8 | 29.4 | 17.5 | 13.5 | 26.5 | 13 | 42.8 | 16.5 | 15.5 | 38.5 | 15 | – |
| COc1ccc2[nH]c3c(c2c1)CCn1c-3cnc1C(C)C [Example 6, 8-methoxy-3-isopropyl-5,6-dihydroimidazo-[5,1-a]-β-carboline] | 73.3 | 11 | 56.5 | 65.97 | 52.5 | 80.6 | 12.5 | 72.5 | 72.5 | 68.5 | 82.2 | 12.5 | 72.5 | 74.0 | 68.5 | – |
| COc1ccc2[nH]c3c(c2c1)CCn1c-3cnc1-c1ccccc1 [Example 14] | 63.5 | 7 | 35.5 | 62.865 | 32 | 68 | 15 | 34 | 61.2 | 31.5 | 70 | 7 | 28 | 63 | 25.5 | – |
| CS(=O)(=O)O.Cc1ncc2n1CCc1c-2n(C)c2ccc(O)cc12 [Example 10, 8-hydroxy-3,11-dimethyl-5,6-dihydroimidazo-[5,1-a]-β-carboline methane sulfonate] | 42.2 | 15 | 5 | 38 | 4.7 | 12.2 | 30 | 1 | 11 | 0.7 | 30 | 11.5 | 12.5 | 27 | 12 | – |
| CCn1c2c(c3ccccc31)CCn1c-2cnc1C.CS(=O)(=O)O [Example 15, 11-ethyl-3-methyl-5,6-dihydroimidazo[5,1-a]-β-carboline methane sulfonate] | 23.9 | 12.5 | 12 | 21.5 | 21 | 45 | 7 | 29.5 | 40.5 | 29 | 80 | 1 | 70 | 72 | 69.7 | – |
